Assay results taken from patent publication US20220323406A1, “METHODS AND COMPOSITIONS FOR DIFFERENTIATING STEM CELLS” (Massachusetts Institute of Technology, priority 2019, published 2022).
Where a name gives a salt, the structure may show the parent alone.

Assays:
[1] = test system: ENR+CD organoids (ISC to Paneth cell differentiation); assay: Primary screen: basal (non-stimulated) lysozyme secretion LYZ.NS, 2.5-D 384-well ENR+CD organoid differentiation; format: cell-based, mouse
From the text: (§1) High-throughput screening.

[2] = test system: ENR+CD organoids (ISC to Paneth cell differentiation); assay: Primary screen: CCh-stimulated lysozyme secretion LYZ.S, 2.5-D 384-well ENR+CD organoid differentiation; format: cell-based, mouse; details: primary screen
From the text: as §1

ENR+CD organoids = assay: Primary screen: ATP (CellTiter-Glo 3D, CTG) cell number/viability, 2.5-D 384-well ENR+CD organoids; details: primary screen; for Z.CTG: standard z score;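 as to all read-outs here: compounds given at plating and again on day 3 over a 6-day differentiation from ENR+CV stem-cell-enriched precursors, ATP measured on day 6, plate median as control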
[3] = primary screen, dose 0.08 uM, FC relative to plate median
[4] = primary screen, dose 0.08 uM, standard z score
[5] = primary screen, dose 0.40 uM, FC relative to plate median
[6] = primary screen, dose 0.40 uM, standard z score
[7] = primary screen, dose 2.00 uM, FC relative to plate median
[8] = primary screen, dose 2.00 uM, standard z score
[9] = primary screen, dose 10.00 uM, FC relative to plate median
[10] = primary screen, dose 10.00 uM, standard z score
[11] = dose 0.08 uM, FC relative to plate median
[12] = dose 0.40 uM, FC relative to plate median
[13] = dose 2.00 uM, FC relative to plate median
[14] = dose 10.00 uM, FC relative to plate median
[15] = dose 0.08 uM, FC vs plate median
[16] = dose 0.40 uM, FC vs plate median
[17] = dose 2.00 uM, FC vs plate median

Compound	Z.LYZ.NS [1, 4]	Z.LYZ.NS [1, 6]	Z.LYZ.NS [1, 8]	Z.LYZ.NS [1, 10]	Z.LYZ.NS (standard z score) ([1]; primary screen, dose 0.08 uM)	Z.LYZ.NS (standard z score) ([1]; primary screen, dose 0.40 uM)	Z.LYZ.NS (standard z score) ([1]; primary screen, dose 2.00 uM)	Z.LYZ.NS (standard z score) ([1]; primary screen, dose 10.00 uM)	Dose.FC.LYZ.NS ([1]; primary screen, dose 0.08 uM)	Dose.FC.LYZ.NS ([1]; primary screen, dose 0.40 uM)	Dose.FC.LYZ.NS ([1]; primary screen, dose 2.00 uM)	Dose.FC.LYZ.NS ([1]; primary screen, dose 10.00 uM)	Dose.FC.LYZ.S ([2]; dose 0.08 uM)	Dose.FC.LYZ.S ([2]; dose 0.40 uM)	Dose.FC.LYZ.S ([2]; dose 2.00 uM)	Dose.FC.LYZ.S ([2]; dose 10.00 uM)	Dose.FC.CTG (ENR+CD organoids; dose 0.08 uM)	Dose.FC.CTG (ENR+CD organoids; dose 0.40 uM)	Dose.FC.CTG (ENR+CD organoids; dose 2.00 uM)	Dose.FC.CTG (ENR+CD organoids; dose 10.00 uM)	further results
CCn1c(N)c(C(=O)NC)c(=O)c2ccc(C#C[C@@](C)(O)COC)nc21 [SAR131675]	0.483	0.774	0.181	−0.766	–	–	–	–	–	–	–	–	–	–	–	–	–	–	–	–	Dose.FC.LYZ.NS [1, 3]: 0.055 log2 fold change; Dose.FC.LYZ.NS [1, 5]: 0.089 log2 fold change; Dose.FC.LYZ.NS [1, 7]: 0.021 log2 fold change; Dose.FC.LYZ.NS [1, 9]: −0.088 log2 fold change; Dose.FC.LYZ.S [2, 11]: 0.148 log2 fold change; Dose.FC.LYZ.S [2, 12]: 0.096 log2 fold change; Dose.FC.LYZ.S [2, 13]: 0.026 log2 fold change; Dose.FC.LYZ.S [2, 14]: 0.000 log2 fold change; Dose.FC.CTG (ENR+CD organoids; [11]): 0.175 log2 fold change; Z.CTG (ENR+CD organoids; dose 0.08 uM): 0.419; Dose.FC.CTG (ENR+CD organoids; [12]): −0.084 log2 fold change; Z.CTG (ENR+CD organoids; dose 0.40 uM): −0.201; Dose.FC.CTG (ENR+CD organoids; [13]): 0.071 log2 fold change; Z.CTG (ENR+CD organoids; dose 2.00 uM): 0.169; Dose.FC.CTG (ENR+CD organoids; [14]): 0.062 log2 fold change; Z.CTG (ENR+CD organoids; dose 10.00 uM): 0.149
C#Cc1cccc(Nc2ncnc3cc4c(cc23)OCCOCCOCCO4)c1 [Icotinib]	–	–	–	–	0.255	−0.632	−1.160	−2.518	–	–	–	–	–	–	–	–	–	–	–	–	Dose.FC.LYZ.NS (log2 fold change) ([1]; primary screen, dose 0.08 uM): 0.029; Dose.FC.LYZ.NS (log2 fold change) ([1]; primary screen, dose 0.40 uM): −0.073; Dose.FC.LYZ.NS (log2 fold change) ([1]; primary screen, dose 2.00 uM): −0.133; Dose.FC.LYZ.NS (log2 fold change) ([1]; primary screen, dose 10.00 uM): −0.289; Dose.FC.LYZ.S (log2 fold change) ([2]; dose 0.08 uM): 0.094; Dose.FC.LYZ.S (log2 fold change) ([2]; dose 0.40 uM): −0.090; Dose.FC.LYZ.S (log2 fold change) ([2]; dose 2.00 uM): −0.243; Dose.FC.LYZ.S (log2 fold change) ([2]; dose 10.00 uM): −0.419; Dose.FC.CTG (log2 fold change) (ENR+CD organoids; dose 0.08 uM): −0.020; Dose.FC.CTG (log2 fold change) (ENR+CD organoids; dose 0.40 uM): −0.061; Dose.FC.CTG (log2 fold change) (ENR+CD organoids; dose 2.00 uM): −0.406; Dose.FC.CTG (log2 fold change) (ENR+CD organoids; dose 10.00 uM): −1.068
Cc1cc(Nc2ncc(Cl)c(Nc3ccccc3S(=O)(=O)C(C)C)n2)c(OC(C)C)cc1C1CCNCC1 [LDK378]	–	–	–	–	0.534	−0.465	−1.702	−2.939	–	–	–	–	–	–	–	–	–	–	–	–	Dose.FC.LYZ.NS (log2 fold change) ([1]; primary screen, dose 0.08 uM): 0.061; Dose.FC.LYZ.NS (log2 fold change) ([1]; primary screen, dose 0.40 uM): −0.053; Dose.FC.LYZ.NS (log2 fold change) ([1]; primary screen, dose 2.00 uM): −0.195; Dose.FC.LYZ.NS (log2 fold change) ([1]; primary screen, dose 10.00 uM): −0.338; Dose.FC.LYZ.S (log2 fold change) ([2]; dose 0.08 uM): 0.118; Dose.FC.LYZ.S (log2 fold change) ([2]; dose 0.40 uM): −0.047; Dose.FC.LYZ.S (log2 fold change) ([2]; dose 2.00 uM): −0.281; Dose.FC.LYZ.S (log2 fold change) ([2]; dose 10.00 uM): −0.487; Dose.FC.CTG (log2 fold change) (ENR+CD organoids; dose 0.08 uM): 0.135; Dose.FC.CTG (log2 fold change) (ENR+CD organoids; dose 0.40 uM): 0.004; Dose.FC.CTG (log2 fold change) (ENR+CD organoids; dose 2.00 uM): −0.364; Dose.FC.CTG (log2 fold change) (ENR+CD organoids; dose 10.00 uM): −1.292
CCC(=O)NCC[C@@H]1CCc2ccc3c(c21)CCO3 [Ramelteon]	0.537	0.712	−0.109	0.062	–	–	–	–	–	–	–	–	–	–	–	–	–	–	–	–	Dose.FC.LYZ.NS [1, 3]: 0.062 log2 fold change; Dose.FC.LYZ.NS [1, 5]: 0.082 log2 fold change; Dose.FC.LYZ.NS [1, 7]: −0.013 log2 fold change; Dose.FC.LYZ.NS [1, 9]: 0.007 log2 fold change; Dose.FC.LYZ.S [2, 11]: 0.030 log2 fold change; Dose.FC.LYZ.S [2, 12]: 0.103 log2 fold change; Dose.FC.LYZ.S [2, 13]: −0.009 log2 fold change; Dose.FC.LYZ.S [2, 14]: 0.001 log2 fold change; Dose.FC.CTG (ENR+CD organoids; [11]): −0.028 log2 fold change; Dose.FC.CTG (ENR+CD organoids; [12]): 0.155 log2 fold change; Dose.FC.CTG (ENR+CD organoids; [13]): −0.315 log2 fold change; Dose.FC.CTG (ENR+CD organoids; [14]): 0.150 log2 fold change
c1ccc(CC2=NCCN2)cc1 [Tolazoline HCl]	–	–	–	–	1.255	0.728	0.765	−0.424	0.144 log2 fold change	0.084 log2 fold change	0.088 log2 fold change	−0.049 log2 fold change	0.169 log2 fold change	0.128 log2 fold change	0.069 log2 fold change	−0.063 log2 fold change	0.245 log2 fold change	0.222 log2 fold change	−0.051 log2 fold change	−0.208 log2 fold change	–
CCOC(=O)c1cncn1[C@H](C)c1ccccc1 [Etomidate]	–	–	–	–	–	–	–	–	−0.008 log2 fold change	0.037 log2 fold change	0.015 log2 fold change	−0.001 log2 fold change	0.053 log2 fold change	0.048 log2 fold change	0.054 log2 fold change	−0.008 log2 fold change	0.084 log2 fold change	0.006 log2 fold change	0.163 log2 fold change	0.039 log2 fold change	Z.LYZ.NS ([1]; primary screen, standard z score, dose 0.08 uM): −0.065; Z.LYZ.NS ([1]; primary screen, standard z score, dose 0.40 uM): 0.318; Z.LYZ.NS ([1]; primary screen, standard z score, dose 2.00 uM): 0.131; Z.LYZ.NS ([1]; primary screen, standard z score, dose 10.00 uM): −0.010
O=c1oc2cc(O)ccc2s1 [Tioxolone]	–	–	–	–	0.864	0.101	0.462	0.202	0.099 log2 fold change	0.012 log2 fold change	0.053 log2 fold change	0.023 log2 fold change	0.149 log2 fold change	0.000 log2 fold change	0.023 log2 fold change	0.028 log2 fold change	0.246 log2 fold change	0.089 log2 fold change	0.044 log2 fold change	0.328 log2 fold change	–
O=C(Nc1ccncc1)c1cc([N+](=O)[O-])ccc1Cl [T0070907]	0.084	−0.029	0.373	−1.897	–	–	–	–	–	–	–	–	–	–	–	–	–	–	–	–	Dose.FC.LYZ.NS [1, 3]: 0.010 log2 fold change; Dose.FC.LYZ.NS [1, 5]: −0.003 log2 fold change; Dose.FC.LYZ.NS [1, 7]: 0.043 log2 fold change; Dose.FC.LYZ.NS [1, 9]: −0.218 log2 fold change; Dose.FC.LYZ.S [2, 11]: −0.005 log2 fold change; Dose.FC.LYZ.S [2, 12]: −0.001 log2 fold change; Dose.FC.LYZ.S [2, 13]: 0.081 log2 fold change; Dose.FC.LYZ.S [2, 14]: −0.312 log2 fold change; Dose.FC.CTG (ENR+CD organoids; [11]): 0.112 log2 fold change; Z.CTG (ENR+CD organoids; dose 0.08 uM): 0.267; Dose.FC.CTG (ENR+CD organoids; [12]): 0.026 log2 fold change; Z.CTG (ENR+CD organoids; dose 0.40 uM): 0.062; Dose.FC.CTG (ENR+CD organoids; [13]): 0.050 log2 fold change; Z.CTG (ENR+CD organoids; dose 2.00 uM): 0.119; Dose.FC.CTG (ENR+CD organoids; [14]): −0.756 log2 fold change; Z.CTG (ENR+CD organoids; dose 10.00 uM): −1.806
O=C1CC[C@@]2(O)[C@H]3Cc4ccc(O)c5c4[C@@]2(CCN3CC2CC2)[C@H]1O5 [Naltrexone HCl]	−0.067	−0.043	0.166	0.302	–	–	–	–	–	–	–	–	–	–	–	–	–	–	–	–	Dose.FC.LYZ.NS ([1]; primary screen; dose 0.08 uM; FC vs plate median): −0.008 log2 fold change; Dose.FC.LYZ.NS ([1]; primary screen; dose 0.40 uM; FC vs plate median): −0.005 log2 fold change; Dose.FC.LYZ.NS ([1]; primary screen; dose 2.00 uM; FC vs plate median): 0.019 log2 fold change; Dose.FC.LYZ.NS ([1]; primary screen; dose 10.00 uM; FC vs plate median): 0.035 log2 fold change; Dose.FC.LYZ.S [2, 15]: 0.002 log2 fold change; Dose.FC.LYZ.S [2, 16]: 0.025 log2 fold change; Dose.FC.LYZ.S [2, 17]: 0.025 log2 fold change; Dose.FC.LYZ.S ([2]; dose 10.00 uM, FC vs plate median): 0.045 log2 fold change; Dose.FC.CTG (ENR+CD organoids; [15]): 0.089 log2 fold change; Dose.FC.CTG (ENR+CD organoids; [16]): 0.070 log2 fold change; Dose.FC.CTG (ENR+CD organoids; [17]): 0.004 log2 fold change
NC(=O)c1cccc(-c2cccc(OC(=O)NC3CCCCC3)c2)c1 [URB597]	–	–	–	–	0.754	−0.007	0.307	−0.123	0.087 log2 fold change	−0.001 log2 fold change	0.035 log2 fold change	−0.014 log2 fold change	0.141 log2 fold change	0.021 log2 fold change	0.017 log2 fold change	−0.044 log2 fold change	0.314 log2 fold change	0.065 log2 fold change	0.137 log2 fold change	−0.021 log2 fold change	–
COc1cc(N2CCC(N)CC2)ccc1Nc1ncc(Cl)c(-c2c[nH]c3ccccc23)n1 [AZD3463]	–	–	–	–	−1.279	−1.652	−2.021	−1.820	−0.147 log2 fold change	−0.190 log2 fold change	−0.232 log2 fold change	−0.209 log2 fold change	−0.199 log2 fold change	−0.293 log2 fold change	−0.315 log2 fold change	−0.328 log2 fold change	−0.275 log2 fold change	−0.341 log2 fold change	−0.772 log2 fold change	−0.960 log2 fold change	Z.CTG (standard z score) (ENR+CD organoids; dose 0.08 uM): −0.657; Z.CTG (standard z score) (ENR+CD organoids; dose 0.40 uM): −0.814; Z.CTG (standard z score) (ENR+CD organoids; dose 2.00 uM): −1.843; Z.CTG (standard z score) (ENR+CD organoids; dose 10.00 uM): −2.293
